The numbers were not newly measured in patent US10653626B2, “Powder for oral suspension containing lamotrigine” (Shanghai Aucta Pharmaceuticals Co., Ltd., priority 2016, dated 2020), which cites them from elsewhere.

Regarding `Nc1nnc(-c2cccc(Cl)c2Cl)c(N)n1` [Lamotrigine, 6-(2,3-dichlorophenyl)-1,2,4-triazine-3,5-diamine], the Solubility in water entry was “insoluble in water”.
